In brackets after ≈: the same amount, converted by molar mass. Where a SMILES comes first, the peptide text is derived from it.
Legend:
Assay type in all cases: cell-based
[1] = system: Acinetobacter baumannii ATCC 19606; test: Broth microdilution MIC; details: ATCC 19606, standard strain
Description: (§1) Determination of Minimal Inhibitory Concentration (MIC)
(§2) In order to test the inhibitory effect of the antimicrobial peptides of the present disclosure, broth microdilution test was conducted to determine the minimal inhibition concentration (MIC) of the antimicrobial peptides against bacteria. The MIC represents the minimal concentration of the peptide which has the ability to inhibit bacteria growth completely.
(§3) Acinetobacter baumannii strains used in the examples in the conduction of the minimal inhibitory concentration and the minimum bactericidal concentration tests are shown in Table 2.

[2] = system: Acinetobacter baumannii 39181; details: 39181, multidrug-resistant
Description: as §1, §2, §3

[3] = system: Acinetobacter baumannii 39400; details: 39400, multidrug-resistant
Description: as §1, §2, §3

[4] = system: Acinetobacter baumannii 44820; details: 44820, multidrug-resistant
Description: as §1, §2, §3

[5] = system: Acinetobacter baumannii ATCC 17978CR; details: colistin-resistant
Description: as §1, §2, §3

[6] = system: Acinetobacter baumannii ATCC 19606CR; details: colistin-resistant
Description: as §1, §2, §3

[7] = system: Acinetobacter baumannii BCRC 80276; details: BCRC 80276, multidrug-resistant
Description: as §1, §2, §3

[8] = system: Acinetobacter baumannii ATCC 19606; test: Minimum bactericidal concentration (MBC) determination; details: ATCC 19606, standard strain
Description: (§4) Determination of Minimum Bactericidal Concentration (MBC)
(§5) In order to find out the minimum bactericidal concentration of the antimicrobial peptides of the present disclosure against bacteria, the surface of a suitable culture medium was covered by 100 μL of antimicrobial peptides at the minimal inhibitory concentration determined above with glass beads, then the medium was cultured at 37° C. for 24 hours, thereafter, and observation was conducted for 3 days. When no colony grew, it is the indication that the bacteria have been killed.
as §3

[9] = system: Acinetobacter baumannii 39181; details: 39181, multidrug-resistant; remark: listed apart in the source
Description: as §4, §5, §3

[10] = system: Acinetobacter baumannii 39400; details: 39400, multidrug-resistant; remark: listed apart in the source
Description: as §4, §5, §3

[11] = system: Acinetobacter baumannii 44820; details: 44820, multidrug-resistant; remark: listed apart in the source
Description: as §4, §5, §3

[12] = system: Acinetobacter baumannii ATCC 17978CR; details: colistin-resistant; remark: listed apart in the source
Description: as §4, §5, §3

[13] = system: Acinetobacter baumannii ATCC 19606CR; details: colistin-resistant; remark: listed apart in the source
Description: as §4, §5, §3

[14] = system: Acinetobacter baumannii BCRC 80276; details: BCRC 80276, multidrug-resistant; remark: listed apart in the source
Description: as §4, §5, §3

Acinetobacter baumannii [15] = test: Broth microdilution MIC, summary in text
Description: as §1, §2

Acinetobacter baumannii [16] = test: MBC determination
Description: as §4, §5

Acinetobacter baumannii [17] = test: Scanning electron microscope observation of bacterial destruction; details: 80 μM peptide, 1×10^9 CFU bacteria, 37° C., 1 hour
[18] = Acinetobacter baumannii, summary of Table 3
[19] = multidrug-resistant Acinetobacter baumannii

| Compound | Minimal Inhibitory Concentration (MIC) [1] [µM] | Minimal Inhibitory Concentration (MIC) [2] [µM] | Minimal Inhibitory Concentration (MIC) [3] [µM] | Minimal Inhibitory Concentration (MIC) [4] [µM] | Minimal Inhibitory Concentration (MIC) [5] [µM] | Minimal Inhibitory Concentration (MIC) [6] [µM] | Minimal Inhibitory Concentration (MIC) [7] [µM] | Minimum Bactericidal Concentration (MBC) [8] [µM] | Minimum Bactericidal Concentration (MBC) [9] [µM] | Minimum Bactericidal Concentration (MBC) [10] [µM] | Minimum Bactericidal Concentration (MBC) [11] [µM] | Minimum Bactericidal Concentration (MBC) [12] [µM] | Minimum Bactericidal Concentration (MBC) [13] [µM] | Minimum Bactericidal Concentration (MBC) [14] [µM] | minimal inhibitory concentration (Acinetobacter baumannii [15]; [18]) [µM] | minimal inhibitory concentration (Acinetobacter baumannii [15]; [19]) [µM] | minimum bactericidal concentration (Acinetobacter baumannii [16]; [18]) [µM] | minimum bactericidal concentration (Acinetobacter baumannii [16]; [19]) [µM] | appearance of bacteria under scanning electron microscope (Acinetobacter baumannii [17]) |
| --- | --- | --- | --- | --- | --- | --- | --- | --- | --- | --- | --- | --- | --- | --- | --- | --- | --- | --- | --- |
| CC[C@H](C)[C@H](NC(=O)[C@H](C)NC(=O)[C@H](CCCCN)NC(=O)[C@H](CCC(N)=O)NC(=O)[C@@H](NC(=O)[C@H](C)NC(=O)[C@@H](NC(=O)[C@H](CC(C)C)NC(=O)[C@H](CCCCN)NC(=O)[C@H](CCC(=O)O)NC(=O)[C@H](CC(C)C)NC(=O)[C@H](C)NC(=O)[C@H](CCCCN)NC(=O)[C@H](CCC(=O)O)NC(=O)[C@@H]1CCCN1C(=O)[C@@H](N)CC(N)=O)[C@@H](C)CC)[C@@H](C)CC)C(=O)N[C@@H](CCCCN)C(=O)NCC(=O)N[C@@H](CCSC)C(=O)N[C@@H](CC(C)C)C(=O)N[C@@H](CC(N)=O)C(=O)NCC(=O)N[C@@H](Cc1c[nH]c2ccccc12)C(=O)N[C@@H](Cc1ccccc1)C(=O)N[C@H](C(=O)NCC(=O)N[C@H](C(=O)NCC(=O)N[C@@H](Cc1ccccc1)C(=O)N[C@@H](CCCNC(=N)N)C(=O)N[C@@H](CCCNC(=N)N)C(=O)N[C@@H](CCCCN)C(=O)N[C@@H](CCCNC(=N)N)C(=O)O)C(C)C)[C@@H](C)O [LysAB2 113-145 G4] (H-NPEKALEKLIAIQKAIKGMLNGWFTGVGFRRKR-OH; N-terminus and C-terminus assumed) | 4 | 4 | 4 | 4 | 8 | 8 | 4 | 4 | 4 | 4 | 4 | 8 | 8 | 4 | 4 (≈ 15.1 µg/mL) | 4 (≈ 15.1 µg/mL) | 4 (≈ 15.1 µg/mL) | 4 (≈ 15.1 µg/mL) | incomplete surface and holes thereon |
| CC[C@H](C)[C@H](NC(=O)[C@H](C)NC(=O)[C@@H](NC(=O)[C@H](CCC(N)=O)NC(=O)[C@@H](NC(=O)[C@H](C)NC(=O)[C@@H](NC(=O)[C@H](CC(C)C)NC(=O)[C@@H]1CCCN1C(=O)[C@H](CCC(=O)O)NC(=O)[C@H](CC(C)C)NC(=O)[C@H](C)NC(=O)[C@H](CCCCN)NC(=O)[C@H](CCC(=O)O)NC(=O)[C@@H]1CCCN1C(=O)[C@@H](N)CC(N)=O)[C@@H](C)CC)[C@@H](C)CC)[C@@H](C)CC)C(=O)N[C@@H](CCCCN)C(=O)NCC(=O)N[C@@H](CCSC)C(=O)N[C@@H](CC(C)C)C(=O)N[C@@H](CC(N)=O)C(=O)NCC(=O)N[C@@H](Cc1c[nH]c2ccccc12)C(=O)N[C@@H](Cc1ccccc1)C(=O)N[C@H](C(=O)NCC(=O)N[C@H](C(=O)NCC(=O)N[C@@H](Cc1ccccc1)C(=O)N[C@@H](CCCNC(=N)N)C(=O)N[C@@H](CCCNC(=N)N)C(=O)N[C@@H](CCCCN)C(=O)N[C@@H](CCCNC(=N)N)C(=O)O)C(C)C)[C@@H](C)O [LysAB2 113-145] (H-NPEKALEPLIAIQIAIKGMLNGWFTGVGFRRKR-OH; N-terminus and C-terminus assumed) | 64 | 64 | 64 | 64 | 64 | 64 | 64 | 64 | 64 | 64 | 64 | 64 | 64 | 64 | 64 (≈ 238 µg/mL) |  | 64 (≈ 238 µg/mL) |  | surface of the bacterial body is incomplete and has holes thereon, even is broken |

Source: patent publication US20170064965A1, “ANTIMICROBIAL PEPTIDES DERIVED FROM PHAGE OF ACINETOBACTER BAUMANNII AND USE THEREOF” (Hualien Tzu Chi Hospital, Buddhist Tzu Chi Medical …, priority 2015, published 2017)
